ChEMBL document CHEMBL4725331, “An investigative study of antitumor properties of a novel thiazolo[4,5-d]pyrimidine small molecule revealing superior antitumor activity with CDK1 selectivity and potent pro-apoptotic properties” (Bioorg Med Chem, 2020)

What was measured:
SF-268 = test: Antiproliferative activity against human SF-268 cells assessed as inhibition of cell growth at 10 uM measured after 48 hrs by SRB assay relative to control; format: functional
TK-10 = test: Antiproliferative activity against human TK-10 cells assessed as inhibition of cell growth measured after 48 hrs by SRB assay; format: functional
OVCAR-3 = test: Antiproliferative activity against human OVCAR-3 cells assessed as inhibition of cell growth measured after 48 hrs by SRB assay; format: functional
UACC-257 = test: Antiproliferative activity against human UACC-257 cells assessed as inhibition of cell growth at 10 uM measured after 48 hrs by SRB assay relative to control; format: functional
A498 = test: Antiproliferative activity against human A498 cells assessed as inhibition of cell growth measured after 48 hrs by SRB assay; format: functional
HCT-116 [1] = test: Induction of apoptosis in human HCT116 cells assessed as decrease in Bcl2 gene expression by RT-PCR analysis relative to untreated control; format: functional
SNB-19 = test: Antiproliferative activity against human SNB-19 cells assessed as inhibition of cell growth measured after 48 hrs by SRB assay; format: functional
COLO 205 = test: Antiproliferative activity against human COLO 205 cells assessed as inhibition of cell growth at 10 uM measured after 48 hrs by SRB assay relative to control; format: functional
HCT-116 [2] = test: Cell cycle arrest in human HCT-116 cells assessed as accumulation in G2/M phase phase at IC50 concentration incubated for 48 hrs by propidium iodide staining based flow cytometry analysis (reference value: 13.75 %); format: functional
HCT-116 [3] = test: Antiproliferative activity against human HCT-116 cells assessed as inhibition of cell growth measured after 48 hrs by SRB assay; format: functional
ACHN = test: Antiproliferative activity against human ACHN cells assessed as inhibition of cell growth measured after 48 hrs by SRB assay; format: functional
NCI-H322M = test: Antiproliferative activity against human NCI-H322M cells assessed as inhibition of cell growth at 10 uM measured after 48 hrs by SRB assay relative to control; format: functional
WI-38 [4] = test: Cell cycle arrest in human WI-38 cells assessed as accumulation in S phase phase at IC50 concentration incubated for 48 hrs by propidium iodide staining based flow cytometry analysis (reference value: 33.8 %); conditions: wi-38, 48 h
HCT-116 [5] = test: Antiproliferative activity against human HCT-116 cells assessed as inhibition of cell growth at 10 uM measured after 48 hrs by SRB assay relative to control; format: functional
Hs-578T = test: Antiproliferative activity against human Hs-578T cells assessed as inhibition of cell growth at 10 uM measured after 48 hrs by SRB assay relative to control; format: functional
SW-620 = test: Antiproliferative activity against human SW-620 cells assessed as inhibition of cell growth measured after 48 hrs by SRB assay; format: functional
HCT-116 [6] = test: Cytotoxicity against human HCT-116 cells assessed as reduction in cell viability after 48 hrs by MTT assay; format: functional, cell-based; conditions: HCT-116, 48 h
UACC-62 = test: Antiproliferative activity against human UACC-62 cells assessed as inhibition of cell growth measured after 48 hrs by SRB assay; format: functional
OVCAR-8 = test: Antiproliferative activity against human OVCAR-8 cells assessed as inhibition of cell growth measured after 48 hrs by SRB assay; format: functional
HOP-92 = test: Antiproliferative activity against human HOP-92 cells assessed as inhibition of cell growth at 10 uM measured after 48 hrs by SRB assay relative to control; format: functional
NCI-H23 [7] = test: Antiproliferative activity against human NCI-H23 cells assessed as inhibition of cell growth measured after 48 hrs by SRB assay; format: functional
HCT-116 [8] = test: Induction of apoptosis in human HCT-116 cells assessed as late apoptotic cells at IC50 incubated for 48 hrs by annexin-V FITC and propidium iodide staining based flow cytometry analysis (reference value: 0.28 %); format: functional
WI-38 [9] = test: Cell cycle arrest in human WI-38 cells assessed as accumulation in sub-G phase at IC50 concentration incubated for 48 hrs by propidium iodide staining based flow cytometry analysis (reference value: 1.35 %); conditions: wi-38, 48 h
[10] = molecular target: Cyclin-dependent kinase 1/cyclin B1 (Homo sapiens, UniProt P06493); test: Inhibition of CDK1/cyclinB (unknown origin); format: protein-complex assay
DU-145 = test: Antiproliferative activity against human DU-145 cells assessed as inhibition of cell growth measured after 48 hrs by SRB assay; format: functional
KM12 [11] = test: Antiproliferative activity against human KM12 cells assessed as inhibition of cell growth at 10 uM measured after 48 hrs by SRB assay relative to control; format: functional
RXF 393 [12] = test: Antiproliferative activity against human RXF 393 cells assessed as inhibition of cell growth at 10 uM measured after 48 hrs by SRB assay relative to control; format: functional
WI-38 [13] = test: Cytotoxicity against human WI-38 cells assessed as reduction in cell viability after 48 hrs by MTT assay; format: cell-based; conditions: WI-38, 48 h
SF-539 = test: Antiproliferative activity against human SF-539 cells assessed as inhibition of cell growth measured after 48 hrs by SRB assay; format: functional
KM12 [14] = test: Antiproliferative activity against human KM12 cells assessed as inhibition of cell growth measured after 48 hrs by SRB assay; format: functional
SK-MEL-2 = test: Antiproliferative activity against human SK-MEL-2 cells assessed as inhibition of cell growth at 10 uM measured after 48 hrs by SRB assay relative to control; format: functional
RXF 393 [15] = test: Antiproliferative activity against human RXF 393 cells assessed as inhibition of cell growth measured after 48 hrs by SRB assay; format: functional
NCI-H23 [16] = test: Antiproliferative activity against human NCI-H23 cells assessed as inhibition of cell growth at 10 uM measured after 48 hrs by SRB assay relative to control; format: functional
HCC 2998 = test: Antiproliferative activity against human HCC 2998 cells assessed as inhibition of cell growth at 10 uM measured after 48 hrs by SRB assay relative to control; format: functional
[17] = read-out: LC50 (the source's name)

Cyclin-dependent kinase 1/cyclin B1, sequence (P06493 whole entry): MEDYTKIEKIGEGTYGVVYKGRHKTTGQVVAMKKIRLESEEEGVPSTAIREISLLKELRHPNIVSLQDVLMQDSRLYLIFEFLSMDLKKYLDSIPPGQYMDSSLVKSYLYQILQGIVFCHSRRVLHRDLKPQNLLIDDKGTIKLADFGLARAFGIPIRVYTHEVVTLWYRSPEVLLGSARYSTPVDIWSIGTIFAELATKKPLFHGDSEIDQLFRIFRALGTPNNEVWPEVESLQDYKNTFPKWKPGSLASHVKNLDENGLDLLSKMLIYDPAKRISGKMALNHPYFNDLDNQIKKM
Cyclin-dependent kinase 1/cyclin B1, sequence (P14635 whole entry, further chain): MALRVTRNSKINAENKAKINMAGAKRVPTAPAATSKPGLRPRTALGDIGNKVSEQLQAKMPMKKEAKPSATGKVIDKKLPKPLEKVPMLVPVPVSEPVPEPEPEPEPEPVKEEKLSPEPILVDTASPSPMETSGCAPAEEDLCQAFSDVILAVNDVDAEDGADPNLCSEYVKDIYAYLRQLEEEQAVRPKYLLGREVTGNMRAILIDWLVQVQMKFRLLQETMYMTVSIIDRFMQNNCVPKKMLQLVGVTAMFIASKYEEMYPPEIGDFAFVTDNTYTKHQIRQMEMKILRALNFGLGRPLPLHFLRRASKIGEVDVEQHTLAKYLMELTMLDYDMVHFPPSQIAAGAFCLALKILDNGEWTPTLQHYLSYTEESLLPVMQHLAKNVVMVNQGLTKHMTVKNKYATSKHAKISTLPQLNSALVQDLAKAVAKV

Compound: COc1ccc(-n2c(=S)sc3c(Cl)nc(C)nc32)c(OC)c1
- inhibition at 10 µM (SF-268): > 50%
- GI50 (TK-10): 4.68 µM
- TGI (TK-10): 18.6 µM
- CC50 (TK-10; [17]): 58.9 µM
- GI50 (OVCAR-3): 1.78 µM
- TGI (OVCAR-3): 3.24 µM
- CC50 (OVCAR-3; [17]): 5.89 µM
- inhibition at 10 µM (UACC-257): > 50%
- GI50 (A498): 11.5 µM
- TGI (A498): 24 µM
- CC50 (A498; [17]): 49 µM
- fold change (FC) (HCT-116 [1]): 3.64
- GI50 (SNB-19): 2.4 µM
- TGI (SNB-19): 5.37 µM
- CC50 (SNB-19; [17]): 17 µM
- inhibition at 10 µM (COLO 205): > 50%
- Activity (HCT-116 [2]): 29.82%
- GI50 (HCT-116 [3]): 1.82 µM
- TGI (HCT-116 [3]): 3.72 µM
- CC50 (HCT-116 [3]; [17]): 7.59 µM
- GI50 (ACHN): 2.09 µM
- TGI (ACHN): 3.98 µM
- CC50 (ACHN; [17]): 7.59 µM
- inhibition at 10 µM (NCI-H322M): > 50%
- Activity (WI-38 [4]): 26.39%
- inhibition at 10 µM (HCT-116 [5]): > 50%
- inhibition at 10 µM (Hs-578T): > 50%
- GI50 (SW-620): 2.57 µM
- TGI (SW-620): 5.5 µM
- CC50 (SW-620; [17]): 28.8 µM
- IC50 (HCT-116 [6]): 5.34 µM
- GI50 (UACC-62): 2.04 µM
- TGI (UACC-62): 4.68 µM
- CC50 (UACC-62; [17]): 12 µM
- GI50 (OVCAR-8): 2.69 µM
- TGI (OVCAR-8): 7.41 µM
- CC50 (OVCAR-8; [17]): 40.7 µM
- inhibition at 10 µM (HOP-92): > 50%
- GI50 (NCI-H23 [7]): 2.45 µM
- TGI (NCI-H23 [7]): 5.89 µM
- CC50 (NCI-H23 [7]; [17]): 57.5 µM
- Activity (HCT-116 [8]): 12.78%
- Activity (WI-38 [9]): 6.1%
- IC50 [10]: 0.097 µM
- GI50 (DU-145): 1.86 µM
- TGI (DU-145): 3.24 µM
- CC50 (DU-145; [17]): 5.75 µM
- inhibition at 10 µM (KM12 [11]): > 50%
- inhibition at 10 µM (RXF 393 [12]): > 50%
- IC50 (WI-38 [13]): 21.7 µM
- GI50 (SF-539): 2.09 µM
- TGI (SF-539): 4.57 µM
- CC50 (SF-539; [17]): 10 µM
- GI50 (KM12 [14]): 3.31 µM
- TGI (KM12 [14]): 11.5 µM
- CC50 (KM12 [14]; [17]): 37.1 µM
- inhibition at 10 µM (SK-MEL-2): > 50%
- GI50 (RXF 393 [15]): 2 µM
- TGI (RXF 393 [15]): 4.07 µM
- CC50 (RXF 393 [15]; [17]): 8.32 µM
- inhibition at 10 µM (NCI-H23 [16]): > 50%
- inhibition at 10 µM (HCC 2998): > 50%
